Results: PubChem BioAssay (NCI)
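The concentration for 50% growth inhibition is given as GI50. TGI is the concentration that stops growth completely.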

Assays:
Assay in all cases: inhibition of tumour cell growth, NCI panel, 384-well format
786-0 renal = system: 786-0 renal
A498 renal = system: A498 renal
A549 NSCLC = system: A549 NSCLC
ACHN renal = system: ACHN renal
BT-549 breast = system: BT-549 breast
CAKI-1 renal = system: CAKI-1 renal
CCRF-CEM leukemia = system: CCRF-CEM leukemia
COLO 205 colon = system: COLO 205 colon
DU-145 prostate = system: DU-145 prostate
EKVX NSCLC = system: EKVX NSCLC
HCC-2998 colon = system: HCC-2998 colon
HCT-116 colon = system: HCT-116 colon
HCT-15 colon = system: HCT-15 colon
HL-60(TB) leukemia = system: HL-60(TB) leukemia
HOP-62 NSCLC = system: HOP-62 NSCLC
HOP-92 NSCLC = system: HOP-92 NSCLC
HS 578T breast = system: HS 578T breast
HT29 colon = system: HT29 colon
IGROV1 ovarian = system: IGROV1 ovarian
KM12 colon = system: KM12 colon
LOX IMVI melanoma = system: LOX IMVI melanoma
M14 melanoma = system: M14 melanoma
MALME-3M melanoma = system: MALME-3M melanoma
MCF7 breast = system: MCF7 breast
MDA-MB-231 breast = system: MDA-MB-231 breast
MDA-MB-435 melanoma = system: MDA-MB-435 melanoma
MDA-MB-468 breast = system: MDA-MB-468 breast
MOLT-4 leukemia = system: MOLT-4 leukemia
NCI-H226 lung = system: NCI-H226 lung
NCI-H23 lung = system: NCI-H23 lung
NCI-H322M lung = system: NCI-H322M lung
NCI-H460 NSCLC = system: NCI-H460 NSCLC
NCI-H522 lung = system: NCI-H522 lung
NCI/ADR-RES ovarian = system: NCI/ADR-RES ovarian
OVCAR-3 ovarian = system: OVCAR-3 ovarian
OVCAR-4 ovarian = system: OVCAR-4 ovarian
OVCAR-5 ovarian = system: OVCAR-5 ovarian
OVCAR-8 ovarian = system: OVCAR-8 ovarian
PC-3 prostate = system: PC-3 prostate
RPMI-8226 leukemia = system: RPMI-8226 leukemia
RXF 393 renal = system: RXF 393 renal
SF-268 CNS = system: SF-268 CNS
SF-295 CNS = system: SF-295 CNS
SF-539 CNS = system: SF-539 CNS
SK-MEL-28 melanoma = system: SK-MEL-28 melanoma
SK-MEL-5 melanoma = system: SK-MEL-5 melanoma
SK-OV-3 ovarian = system: SK-OV-3 ovarian
SN12C renal = system: SN12C renal
SNB-19 CNS = system: SNB-19 CNS
SNB-75 CNS = system: SNB-75 CNS
SR leukemia = system: SR leukemia
SW-620 colon = system: SW-620 colon
T-47D breast = system: T-47D breast
TK-10 renal = system: TK-10 renal
U251 glioblastoma = system: U251 glioblastoma
UACC-257 melanoma = system: UACC-257 melanoma
UACC-62 melanoma = system: UACC-62 melanoma
UO-31 renal = system: UO-31 renal

`C=CC(=O)N1CCC([C@@H]2CCNc3c(C(N)=O)c(-c4ccc(Oc5ccccc5)cc4)nn32)CC1` showed a GI50 (786-0 renal) of 15.4 µM, a TGI (786-0 renal) of 37.7 µM and a GI50 (A498 renal) of 15.1 µM. For the same compound, the TGI (A498 renal) was greater than 56.3 µM, the GI50 (A549 NSCLC) was 16.2 µM and the TGI (A549 NSCLC) was greater than 52.4 µM. It also gave a GI50 (ACHN renal) of 9.75 µM, a TGI (ACHN renal) of 44.6 µM and a GI50 (BT-549 breast) of 13.4 µM. The TGI (BT-549 breast) was 26.4 µM, the GI50 (CAKI-1 renal) was 14.7 µM and the TGI (CAKI-1 renal) was 47.7 µM. The GI50 (CCRF-CEM leukemia) was 19.7 µM, the TGI (CCRF-CEM leukemia) was 35 µM and the GI50 (COLO 205 colon) was 21.7 µM. It also gave a TGI (COLO 205 colon) of 45.6 µM, a GI50 (DU-145 prostate) of 11.6 µM and a TGI (DU-145 prostate) of 30.6 µM. The GI50 (EKVX NSCLC) was 6.77 µM, the TGI (EKVX NSCLC) was 31.2 µM and the GI50 (HCC-2998 colon) was 11.7 µM. For the same compound, the TGI (HCC-2998 colon) was 24.2 µM, the GI50 (HCT-116 colon) was 17.6 µM and the TGI (HCT-116 colon) was 32.8 µM. For the same compound, the GI50 (HCT-15 colon) was 16.8 µM, the TGI (HCT-15 colon) was 32.1 µM and the GI50 (HL-60(TB) leukemia) was 17.1 µM. The TGI (HL-60(TB) leukemia) was 31.3 µM, the GI50 (HOP-62 NSCLC) was 19.6 µM and the TGI (HOP-62 NSCLC) was 49.6 µM. The GI50 (HOP-92 NSCLC) was 14.6 µM, the TGI (HOP-92 NSCLC) was 29.7 µM and the GI50 (HS 578T breast) was 16 µM. It also gave a TGI (HS 578T breast) of 30.8 µM, a GI50 (HT29 colon) of 17.8 µM and a TGI (HT29 colon) of 33.4 µM. For the same compound, the GI50 (IGROV1 ovarian) was 4.22 µM, the TGI (IGROV1 ovarian) was 16.9 µM and the GI50 (KM12 colon) was 42.5 µM. It also gave a TGI (KM12 colon) greater than 100 µM, a GI50 (LOX IMVI melanoma) of 14.9 µM and a TGI (LOX IMVI melanoma) of 28.5 µM. For the same compound, the GI50 (M14 melanoma) was 18 µM, the TGI (M14 melanoma) was 36.8 µM and the GI50 (MALME-3M melanoma) was 15.3 µM. It also gave a TGI (MALME-3M melanoma) of 29.1 µM, a GI50 (MCF7 breast) of 23.7 µM and a TGI (MCF7 breast) greater than 69 µM. It also gave a GI50 (MDA-MB-231 breast) of 17.4 µM, a TGI (MDA-MB-231 breast) of 33.6 µM and a GI50 (MDA-MB-435 melanoma) of 23 µM. The TGI (MDA-MB-435 melanoma) was 53.7 µM, the GI50 (MDA-MB-468 breast) was 0.684 µM and the TGI (MDA-MB-468 breast) was 4.09 µM. It also gave a GI50 (MOLT-4 leukemia) of 14.3 µM, a TGI (MOLT-4 leukemia) of 27.6 µM and a GI50 (NCI-H226 lung) of 14.2 µM. The TGI (NCI-H226 lung) was 32.3 µM, the GI50 (NCI-H23 lung) was 16.8 µM and the TGI (NCI-H23 lung) was 31.6 µM. The GI50 (NCI-H322M lung) was 2.53 µM, the TGI (NCI-H322M lung) was 15 µM and the GI50 (NCI-H460 NSCLC) was 25.2 µM. It also gave a TGI (NCI-H460 NSCLC) greater than 61.8 µM, a GI50 (NCI-H522 lung) of 3.46 µM and a TGI (NCI-H522 lung) of 12.1 µM. The GI50 (NCI/ADR-RES ovarian) was 16.9 µM, the TGI (NCI/ADR-RES ovarian) was 36.5 µM and the GI50 (OVCAR-3 ovarian) was 9.13 µM. It also gave a TGI (OVCAR-3 ovarian) of 25.6 µM, a GI50 (OVCAR-4 ovarian) of 15.5 µM and a TGI (OVCAR-4 ovarian) of 45.9 µM. It also gave a GI50 (OVCAR-5 ovarian) of 48.2 µM, a TGI (OVCAR-5 ovarian) greater than 100 µM and a GI50 (OVCAR-8 ovarian) of 17.2 µM. The TGI (OVCAR-8 ovarian) was 36.1 µM, the GI50 (PC-3 prostate) was 31.6 µM and the TGI (PC-3 prostate) was greater than 86 µM. It also gave a GI50 (RPMI-8226 leukemia) of 16.3 µM, a TGI (RPMI-8226 leukemia) of 30.7 µM and a GI50 (RXF 393 renal) of 7.6 µM. The TGI (RXF 393 renal) was 20.2 µM, the GI50 (SF-268 CNS) was 15.4 µM and the TGI (SF-268 CNS) was 40.6 µM. It also gave a GI50 (SF-295 CNS) of 28.5 µM, a TGI (SF-295 CNS) greater than 80.2 µM and a GI50 (SF-539 CNS) of 17.8 µM. It also gave a TGI (SF-539 CNS) of 35.7 µM, a GI50 (SK-MEL-28 melanoma) of 18 µM and a TGI (SK-MEL-28 melanoma) of 33.6 µM. For the same compound, the GI50 (SK-MEL-5 melanoma) was 15.6 µM, the TGI (SK-MEL-5 melanoma) was 30 µM and the GI50 (SK-OV-3 ovarian) was 14.2 µM. The TGI (SK-OV-3 ovarian) was greater than 69.8 µM, the GI50 (SN12C renal) was 17.6 µM and the TGI (SN12C renal) was 55 µM. For the same compound, the GI50 (SNB-19 CNS) was 20 µM, the TGI (SNB-19 CNS) was 51 µM and the GI50 (SNB-75 CNS) was 17.4 µM. The TGI (SNB-75 CNS) was 50.6 µM, the GI50 (SR leukemia) was 14.2 µM and the TGI (SR leukemia) was 27.6 µM. The GI50 (SW-620 colon) was 18.7 µM, the TGI (SW-620 colon) was 36.5 µM and the GI50 (T-47D breast) was 7.05 µM. For the same compound, the TGI (T-47D breast) was greater than 77.2 µM, the GI50 (TK-10 renal) was 5.89 µM and the TGI (TK-10 renal) was 27.3 µM. It also gave a GI50 (U251 glioblastoma) of 19.4 µM, a TGI (U251 glioblastoma) of 40.7 µM and a GI50 (UACC-257 melanoma) of 17.8 µM. It also gave a TGI (UACC-257 melanoma) of 35.3 µM, a GI50 (UACC-62 melanoma) of 16.7 µM and a TGI (UACC-62 melanoma) of 34 µM. For the same compound, the GI50 (UO-31 renal) was 12.1 µM and the TGI (UO-31 renal) was greater than 80.8 µM.
